According to patent US7786137B2, “Bicyclic derivatives as modulators of ion channels” (Vertex Pharmaceuticals Incorporated, priority 2005, dated 2010):

What follows are compounds tested against NaV1.3 (Homo sapiens, UniProt Q9NY46) (assay: VIPR optical membrane potential assay, NaV1.3 inhibition). Conditions: activity against NaV 1.3 channel.
Chain of NaV1.3 (Q9NY46 whole entry): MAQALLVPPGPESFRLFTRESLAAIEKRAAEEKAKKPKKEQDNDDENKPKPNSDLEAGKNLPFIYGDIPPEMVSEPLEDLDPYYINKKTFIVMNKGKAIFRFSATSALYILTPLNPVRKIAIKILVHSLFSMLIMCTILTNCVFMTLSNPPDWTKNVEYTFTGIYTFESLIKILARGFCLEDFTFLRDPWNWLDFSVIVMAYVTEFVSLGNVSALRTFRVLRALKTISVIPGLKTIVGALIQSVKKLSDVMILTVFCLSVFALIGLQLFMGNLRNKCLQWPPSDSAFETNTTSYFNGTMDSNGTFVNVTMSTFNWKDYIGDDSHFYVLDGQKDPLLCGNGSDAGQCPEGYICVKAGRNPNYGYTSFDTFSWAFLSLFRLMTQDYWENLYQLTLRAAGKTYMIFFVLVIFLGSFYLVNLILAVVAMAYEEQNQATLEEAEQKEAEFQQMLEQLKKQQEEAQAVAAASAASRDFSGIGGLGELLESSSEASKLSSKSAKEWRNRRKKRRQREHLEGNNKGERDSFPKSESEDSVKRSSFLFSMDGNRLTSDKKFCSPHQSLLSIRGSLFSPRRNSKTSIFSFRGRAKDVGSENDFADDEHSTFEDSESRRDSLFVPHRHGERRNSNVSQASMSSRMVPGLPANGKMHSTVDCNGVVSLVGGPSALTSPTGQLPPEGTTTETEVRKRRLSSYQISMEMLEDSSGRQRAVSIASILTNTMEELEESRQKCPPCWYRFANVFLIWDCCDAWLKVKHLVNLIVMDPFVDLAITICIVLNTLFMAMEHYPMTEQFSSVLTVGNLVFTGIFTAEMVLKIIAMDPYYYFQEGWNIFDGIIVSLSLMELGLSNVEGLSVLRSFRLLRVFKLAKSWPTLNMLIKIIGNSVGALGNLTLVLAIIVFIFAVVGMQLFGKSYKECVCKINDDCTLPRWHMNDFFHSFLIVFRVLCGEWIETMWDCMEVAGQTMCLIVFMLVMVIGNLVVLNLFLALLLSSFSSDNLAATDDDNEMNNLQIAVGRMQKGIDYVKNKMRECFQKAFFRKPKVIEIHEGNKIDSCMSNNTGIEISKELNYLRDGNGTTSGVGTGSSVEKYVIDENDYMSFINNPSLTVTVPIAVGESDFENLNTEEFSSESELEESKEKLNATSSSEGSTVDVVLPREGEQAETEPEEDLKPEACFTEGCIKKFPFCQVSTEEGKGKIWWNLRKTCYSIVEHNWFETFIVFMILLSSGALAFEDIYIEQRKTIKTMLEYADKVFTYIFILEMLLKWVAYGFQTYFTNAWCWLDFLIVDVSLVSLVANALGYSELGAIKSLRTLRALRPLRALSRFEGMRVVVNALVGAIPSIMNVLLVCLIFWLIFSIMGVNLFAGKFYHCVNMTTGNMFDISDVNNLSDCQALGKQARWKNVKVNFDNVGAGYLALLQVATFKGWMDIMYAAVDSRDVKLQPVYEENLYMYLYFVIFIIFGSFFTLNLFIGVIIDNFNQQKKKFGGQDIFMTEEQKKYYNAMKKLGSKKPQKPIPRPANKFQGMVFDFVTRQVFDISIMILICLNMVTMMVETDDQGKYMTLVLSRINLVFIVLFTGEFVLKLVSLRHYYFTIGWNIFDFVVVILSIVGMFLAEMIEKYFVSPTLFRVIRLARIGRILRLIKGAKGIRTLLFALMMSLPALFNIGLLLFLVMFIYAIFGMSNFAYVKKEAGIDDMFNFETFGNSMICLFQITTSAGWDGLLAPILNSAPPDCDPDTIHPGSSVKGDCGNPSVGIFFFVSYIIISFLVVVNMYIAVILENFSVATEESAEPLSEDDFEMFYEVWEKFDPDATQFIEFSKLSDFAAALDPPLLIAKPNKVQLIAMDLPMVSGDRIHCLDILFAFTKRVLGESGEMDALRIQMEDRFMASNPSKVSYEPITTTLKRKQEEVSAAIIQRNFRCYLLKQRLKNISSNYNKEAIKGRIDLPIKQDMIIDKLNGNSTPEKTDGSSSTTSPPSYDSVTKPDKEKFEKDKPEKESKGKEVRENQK
Format: cell-based
Parameters: expressed in transfected cells; host or cells: HEK293
Procedure: Antagonist properties of test compounds were assessed as follows. Cells expressing the NaV of interest were placed into microtiter plates. After an incubation period, the cells were stained with fluorescent dyes sensitive to the transmembrane potential. The test compounds were added to the microtiter plate. The cells were stimulated with either a chemical or electrical means to evoke a NaV dependent membrane potential change from unblocked channels, which was detected and measured with trans-membrane potential-sensitive dyes. Antagonists were detected as a decreased membrane potential response to the stimulus.
The following is an example of how NaV1.3 inhibition activity is measured using the optical membrane potential method#2. Other subtypes are performed in an analogous mode in a cell line expressing the NaV of interest.
HEK293 cells stably expressing NaV1.3 are plated into 96-well microtiter plates. After an appropriate incubation period, the cells are stained with the voltage sensitive dyes CC2-DMPE/DiSBAC2(3) as follows.
2× CC2-DMPE=20 μM CC2-DMPE: 10 mM CC2-DMPE is vortexed with an equivalent volume of 10% pluronic, followed by vortexing in required amount of HBSS containing 10 mM HEPES. Each cell plate will require 5 mL of 2× CC2-DMPE. 50 μL of 2× CC2-DMPE is to wells containing washed cells, resulting in a 10 μM final staining concentration. The cells are stained for 30 minutes in the dark at RT.
2× DISBAC2(3) with ABSC1=6 μM DISBAC2(3) and 1 mM ABSC1: The required amount of 10 mM DISBAC2(3) is added to a 50 ml conical tube and mixed with 1 μL 10% pluronic for each mL of solution to be made and vortexed together. Then HBSS/HEPES is added to make up 2× solution. Finally, the ABSC1 is added.
The 2× DiSBAC2(3) solution can be used to solvate compound plates. Note that compound plates are made at 2× drug concentration. Wash stained plate again, leaving residual volume of 50 μL. Add 50 μL/well of the 2× DiSBAC2(3) w/ABSC1. Stain for 30 minutes in the dark at RT.
The instrument comprises a microtiter plate handler, an optical system for exciting the coumarin dye while simultaneously recording the coumarin and oxonol emissions, a waveform generator, a current- or voltage-controlled amplifier, and a device for inserting electrodes in well. Under integrated computer control, this instrument passes user-programmed electrical stimulus protocols to cells within the wells of the microfilter plate.
Insert or use electrodes into each well to be assayed.
Use the current-controlled amplifier to deliver stimulation wave pulses for 3 s. Two seconds of pre-stimulus recording are performed to obtain the un-stimulated intensities. Five seconds of post-stimulation recording are performed to examine the relaxation to the resting state.
Data are analyzed and reported as normalized ratios of background-subtracted emission intensities measured in the 460 nm and 580 nm channels. Background intensities are then subtracted from each assay channel. Background intensities are obtained by measuring the emission intensities during the same time periods from identically treated assay wells in which there are no cells. The response as a function of time is then reported as the ratios obtained using the following formula: […]
The data is further reduced by calculating the initial (Ri) and final (Rf) ratios. These are the average ratio values during part or all of the pre-stimulation period, and during sample points during the stimulation period. The response to the stimulus ? =Rf/Ri is then calculated.
Control responses are obtained by performing assays in the presence of a compound with the desired properties (positive control), such as tetracaine, and in the absence of pharmacological agents (negative control). Responses to the negative (N) and positive (P) controls are calculated as above. The compound antagonist activity A is defined as:
[formula] where R is the ratio response of the test compound.
`Cc1cccc(OCC(=O)N2CCc3cc(S(=O)(=O)Nc4nccs4)ccc32)c1` [Compound 1] was tested, and the IC50 was < 2000 nM. In the case of `O=C(COc1ccccc1Cl)N1CCc2cc(S(=O)(=O)Nc3nccs3)ccc21` [Compound 2], the IC50 is reported as < 2000 nM. In the case of `O=C(c1ccc(F)cc1)N1Cc2ccc(S(=O)(=O)Nc3nccs3)cc2C1` [Compound 3], the IC50 is reported as 2000 to 5000 nM. For `Cc1ccc(F)c(C(=O)N2CCc3cc(S(=O)(=O)Nc4nccs4)ccc32)c1` [Compound 4], the IC50 was > 5000 nM. In the case of `COc1ccc(CC(=O)N2CCc3cc(S(=O)(=O)Nc4nccs4)ccc32)cc1` [Compound 5], the IC50 is reported as < 2000 nM. For `O=C(c1ccc(F)c(F)c1F)N1CCc2cc(S(=O)(=O)Nc3ncns3)ccc21` [Compound 6], the IC50 was 2000 to 5000 nM. `Cc1ccc(C(=O)N2CCc3cc(S(=O)(=O)Nc4nccs4)ccc32)cc1` [Compound 7] gave an IC50 of 2000 to 5000 nM. `CC(Oc1ccccc1)C(=O)N1CCc2ccc(S(=O)(=O)Nc3nccs3)cc2C1` (centres unmarked) [Compound 8] was tested, and the IC50 was > 5000 nM. `CC(C)(Oc1ccc(Cl)cc1)C(=O)N1CCc2cc(S(=O)(=O)Nc3nccs3)ccc21` [Compound 9] was tested, and the IC50 was < 2000 nM. For `COc1ccccc1CC(=O)N1CCc2cc(S(=O)(=O)Nc3nccs3)ccc21` [Compound 10], the IC50 was 2000 to 5000 nM. For `O=C(COc1cccc(Cl)c1)N1Cc2ccc(S(=O)(=O)Nc3nccs3)cc2C1` [Compound 11], the IC50 was < 2000 nM. `O=C(COc1ccccc1)N1CCc2ccc(S(=O)(=O)Nc3nccs3)cc2C1` [Compound 12] was tested, and the IC50 was > 5000 nM. `O=C(COc1ccc(F)c(Cl)c1)N1CCc2cc(S(=O)(=O)Nc3ncns3)ccc21` [Compound 13] was tested, and the IC50 was < 2000 nM. `O=C(COc1ccc(F)cc1)N1CCc2cc(S(=O)(=O)Nc3nccs3)ccc21` [Compound 14] was tested, and the IC50 was < 2000 nM. In the case of `O=C(CN1CCc2ccccc2C1)N1CCCc2cc(S(=O)(=O)Nc3nccs3)ccc21` [Compound 15], the IC50 is reported as 2000 to 5000 nM. `Cc1ccc(OCC(=O)N2CCc3ccc(S(=O)(=O)Nc4nccs4)cc3C2)c(C)c1` [Compound 16] was tested, and the IC50 was < 2000 nM. In the case of `CC(C(=O)N1Cc2ccc(S(=O)(=O)Nc3nccs3)cc2C1)n1ccc2ccccc21` (centres unmarked) [Compound 17], the IC50 is reported as < 2000 nM. In the case of `COc1cccc(CCC(=O)n2ccc3cc(S(=O)(=O)Nc4nccs4)ccc32)c1` [Compound 18], the IC50 is reported as < 2000 nM. `O=C(COc1ccc(Cl)c(Cl)c1)n1ccc2cc(S(=O)(=O)Nc3nccs3)ccc21` [Compound 19] was tested, and the IC50 was > 5000 nM. `C[C@H](C(=O)N1CCc2cc(S(=O)(=O)Nc3nccs3)ccc21)n1ccc2ccccc21` [Compound 20] was tested, and the IC50 was < 2000 nM. With `CC(Oc1cc(Cl)ccc1Cl)C(=O)N1CCc2cc(S(=O)(=O)Nc3nccs3)ccc21` (centres unmarked) [Compound 21] the IC50 was < 2000 nM. In the case of `O=S(=O)(Nc1nccs1)c1ccc2c(c1)CCN2CCNc1cnc2ccccc2c1` [Compound 22], the IC50 is reported as > 5000 nM. In the case of `O=C(COc1ccc(Cl)cc1)N1CCc2ccc(S(=O)(=O)Nc3nccs3)cc2C1` [Compound 23], the IC50 is reported as > 5000 nM. In the case of `O=C(CNCc1ccccc1)N1CCc2cc(S(=O)(=O)Nc3nccs3)ccc21` [Compound 24], the IC50 is reported as > 5000 nM. `Cc1ccc(OCC(=O)N2CCc3ccc(S(=O)(=O)Nc4nccs4)cc3C2)cc1` [Compound 25] was tested, and the IC50 was > 5000 nM. In the case of `Cc1ccc(CC(=O)N2CCc3cc(S(=O)(=O)Nc4nccs4)ccc32)cc1` [Compound 26], the IC50 is reported as < 2000 nM. For `O=C(COc1ccc(F)c(Cl)c1)N1Cc2ccc(S(=O)(=O)Nc3nccs3)cc2C1` [Compound 27], the IC50 was < 2000 nM. For `CN(CC(=O)N1CCc2cc(S(=O)(=O)Nc3nccs3)ccc21)c1ccncc1` [Compound 29], the IC50 was > 5000 nM. For `O=C(COc1ccc(F)c(Cl)c1)N1CCc2cc(S(=O)(=O)Nc3nccs3)ccc21` [Compound 30], the IC50 was < 2000 nM. With `COc1cccc(CC(=O)N2CCc3cc(S(=O)(=O)Nc4ncns4)ccc32)c1` [Compound 31] the IC50 was < 2000 nM. For `O=C(CCCOc1ccc(Cl)c(Cl)c1)N1Cc2ccc(S(=O)(=O)Nc3ncns3)cc2C1` [Compound 32], the IC50 was < 2000 nM. `O=C(CCCOc1ccc(Cl)cc1Cl)N1CCc2cc(S(=O)(=O)Nc3ncns3)ccc21` [Compound 33] was tested, and the IC50 was < 2000 nM. In the case of `O=C(c1ccccc1F)N1CCc2cc(S(=O)(=O)Nc3ncns3)ccc21` [Compound 34], the IC50 is reported as > 5000 nM. In the case of `Cc1ccccc1CNCC(=O)N1CCc2cc(S(=O)(=O)Nc3nccs3)ccc21` [Compound 35], the IC50 is reported as 2000 to 5000 nM. Work on `O=C(COc1ccc(F)c(Cl)c1)N1CCCc2cc(S(=O)(=O)Nc3ncns3)ccc21` [Compound 36] yielded an IC50 of 2000 to 5000 nM. Compound `O=C(CN1CCCc2cc(Cl)ccc21)N1Cc2ccc(S(=O)(=O)Nc3ccncn3)cc2C1` [Compound 37] has an IC50 of 2000 to 5000 nM. In the case of `CC(Oc1ccccc1)C(=O)N1CCCc2cc(S(=O)(=O)Nc3nccs3)ccc21` (centres unmarked) [Compound 39], the IC50 is reported as > 5000 nM. With `O=C(c1ccccc1Cl)N1CCc2cc(S(=O)(=O)Nc3nccs3)ccc21` [Compound 40] the IC50 was > 5000 nM. For `Cc1ccc(CNCC(=O)N2CCc3cc(S(=O)(=O)Nc4nccs4)ccc32)cc1` [Compound 41], the IC50 was 2000 to 5000 nM. With `O=C(COc1ccc(F)cc1)N1CCc2cc(S(=O)(=O)Nc3ncns3)ccc21` [Compound 42] the IC50 was < 2000 nM. `Cc1cccc(CC(=O)N2CCc3cc(S(=O)(=O)Nc4nccs4)ccc32)c1` [Compound 43] was tested, and the IC50 was < 2000 nM. For `O=C(CN1CCc2ccc(Cl)cc2C1)N1CCc2cc(S(=O)(=O)Nc3nccs3)ccc21` [Compound 44], the IC50 was < 2000 nM. `O=C(COc1ccnc2c(C(F)(F)F)cccc12)N1CCc2ccc(S(=O)(=O)Nc3nncs3)cc2C1` [Compound 45] was tested, and the IC50 was > 5000 nM. In the case of `Cc1ccc(C(=O)N2CCc3cc(S(=O)(=O)Nc4nccs4)ccc32)cc1` [Compound 47], the IC50 is reported as < 2000 nM. Work on `O=C(CNc1ccc(F)c(Cl)c1)N1CCc2cc(S(=O)(=O)Nc3nccs3)ccc21` [Compound 48] yielded an IC50 of 2000 to 5000 nM. In the case of `O=C(COc1ccc(Cl)cc1)N1CCc2cc(S(=O)(=O)Nc3nccs3)ccc21` [Compound 49], the IC50 is reported as < 2000 nM. With `O=C(c1cccc(Cl)c1)N1CCc2cc(S(=O)(=O)Nc3nccs3)ccc21` [Compound 50] the IC50 was < 2000 nM. In the case of `O=C(Cc1ccc(OC(F)(F)F)cc1)N1CCc2cc(S(=O)(=O)Nc3nccs3)ccc21` [Compound 51], the IC50 is reported as < 2000 nM. In the case of `O=C(COc1ccc(OC(F)(F)F)cc1)N1CCc2ccc(S(=O)(=O)Nc3nccs3)cc2C1` [Compound 52], the IC50 is reported as > 5000 nM. Compound `O=C(COc1cccc(Cl)c1)N1CCCc2cc(S(=O)(=O)Nc3ncns3)ccc21` [Compound 53] has an IC50 of 2000 to 5000 nM. `O=C(N1CCc2cc(S(=O)(=O)Nc3nccs3)ccc21)C1(c2ccccc2)CC1` [Compound 54] was tested, and the IC50 was < 2000 nM. `COc1cc(C(=O)n2ccc3cc(S(=O)(=O)Nc4nccs4)ccc32)ccc1C` [Compound 55] was tested, and the IC50 was 2000 to 5000 nM. For `O=C(Cn1ccc2cccc(Cl)c21)N1Cc2ccc(S(=O)(=O)Nc3ccncn3)cc2C1` [Compound 56], the IC50 was < 2000 nM. `CC(C(=O)N1Cc2ccc(S(=O)(=O)Nc3ncns3)cc2C1)N1CCCc2cc(Cl)ccc21` (centres unmarked) [Compound 57] was tested, and the IC50 was < 2000 nM. In the case of `C[C@H](C(=O)N1Cc2ccc(S(=O)(=O)Nc3ccc(Cl)nn3)cc2C1)n1ccc2c(F)cccc21` [Compound 58], the IC50 is reported as > 5000 nM. For `O=C(ON1Cc2ccc(S(=O)(=O)Nc3nccs3)cc2C1)c1cccc(C(F)(F)F)c1` [Compound 59], the IC50 was < 2000 nM. `Cc1ccc(OCC(=O)N2CCc3cc(S(=O)(=O)Nc4nccs4)ccc32)c(C)c1` [Compound 60] was tested, and the IC50 was < 2000 nM. `O=C(CNc1cc(F)ccc1F)N1CCc2cc(S(=O)(=O)Nc3nccs3)ccc21` [Compound 61] was tested, and the IC50 was < 2000 nM. With `CC(Oc1cccc(Cl)c1)C(=O)N1Cc2ccc(S(=O)(=O)Nc3nccs3)cc2C1` (centres unmarked) [Compound 62] the IC50 was < 2000 nM. `O=C(Cc1ccc(C(F)(F)F)cc1)N1CCc2cc(S(=O)(=O)Nc3nccs3)ccc21` [Compound 63] was tested, and the IC50 was < 2000 nM. `Cc1ccc2c(c1)CCCN2CC(=O)N1CCc2cc(S(=O)(=O)Nc3nccs3)ccc21` [Compound 64] gave an IC50 of 2000 to 5000 nM. For `O=S(=O)(Nc1nccs1)c1ccc2c(c1)CCN2CCNc1nc2ccccc2[nH]1` [Compound 66], the IC50 was > 5000 nM.
